Source: PubChem BioAssay (NCI)
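Five concentrations, 48 hours, 96-well plates. GI50: concentration for 50% inhibition of growth. At the TGI there is no net growth.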

Tests used:
Assay in all cases: NCI-60 cell line screen, 48 h
[1] = system: A498 renal
[2] = system: DU-145 prostate
[3] = system: MDA-N
[4] = system: NCI-H23 lung
[5] = system: NCI-H460 lung
[6] = system: OVCAR-5 ovarian
[7] = system: PC-3 prostate
[8] = system: BT-549 breast
[9] = system: SF-539 CNS

## C=CC(C)(C)C1(CC(OC)OC)C(=O)N(C)c2ccccc21 (stereo unspecified)
[1]
  TGI: > 25 µM
[2]
  TGI: > 25 µM
[3]
  TGI: > 25 µM
[4]
  TGI: > 25 µM
[5]
  TGI: > 25 µM
[6]
  TGI: > 25 µM
[7]
  TGI: > 25 µM

## Cn1cc(-c2nc(-c3c[nH]c4ccncc34)cs2)c2ccccc21
[1]
  GI50: 1.86 µM
  TGI: 3.3 µM
[8]
  GI50: 9 µM
  TGI: 35.5 µM
[2]
  GI50: 1.74 µM
  TGI: 3.15 µM
[6]
  GI50: 1.76 µM
  TGI: 3.18 µM
[7]
  GI50: 1.45 µM
  TGI: 2.96 µM
[9]
  GI50: 1.78 µM
  TGI: 3.26 µM

## CCCCOc1c(C(=O)O)cc(Br)cc1C(=O)O
[1]
  TGI: > 100 µM
[8]
  TGI: > 100 µM
[3]
  TGI: > 100 µM
[4]
  TGI: > 100 µM
[5]
  TGI: > 100 µM
[6]
  TGI: > 100 µM
[7]
  TGI: > 100 µM
[9]
  TGI: > 100 µM

## Cc1nc(N)sc1C(=O)Nc1ncn[nH]1
[8]
  TGI: > 100 µM
[2]
  TGI: > 100 µM
[3]
  TGI: > 100 µM
[4]
  TGI: > 100 µM
[5]
  TGI: > 100 µM
[6]
  TGI: > 100 µM
[7]
  TGI: > 100 µM
[9]
  TGI: > 100 µM

## C/C(=N/NC(=S)N(C)C)c1ccccc1O
[1]
  TGI: 97.9 µM
[8]
  TGI: > 100 µM
[2]
  TGI: > 100 µM
[3]
  TGI: > 100 µM
[4]
  TGI: > 100 µM
[5]
  TGI: 30.1 µM
[6]
  TGI: > 100 µM
[7]
  TGI: > 100 µM
[9]
  TGI: 50.3 µM

## N#C/C(=C/n1c(=S)[nH]c2ccccc21)C(N)=O
[1]
  TGI: > 100 µM
[2]
  TGI: > 100 µM
[3]
  TGI: > 100 µM
[4]
  TGI: > 100 µM
[5]
  TGI: > 100 µM
[6]
  TGI: > 100 µM
[7]
  TGI: > 100 µM
[9]
  TGI: > 100 µM

## CC(C)NCC(O)c1ccc(O)c2ncccc12 (stereo unspecified)
[1]
  TGI: > 100 µM
[8]
  TGI: > 100 µM
[2]
  TGI: > 100 µM
[3]
  TGI: > 100 µM
[4]
  TGI: 78.7 µM
[5]
  TGI: > 100 µM
[6]
  TGI: > 100 µM
[7]
  TGI: > 100 µM
[9]
  TGI: > 100 µM

## N#C/C=c1/c2ccccc2n2nc3ccccc3c12
[1]
  TGI: 70.3 µM
[8]
  TGI: > 100 µM
[2]
  TGI: > 100 µM
[3]
  TGI: > 100 µM
[4]
  TGI: 59.2 µM
[5]
  TGI: > 100 µM
[6]
  TGI: > 100 µM
[7]
  TGI: > 100 µM
[9]
  TGI: 37.6 µM

## COC(=O)[C@H]1[C@@H](O)[C@@]2(O)c3c(OC)cc(OC)cc3O[C@@]2(c2ccc3c(c2)OCO3)[C@@H]1c1ccccc1
[1]
  TGI: > 50 µM
[8]
  TGI: > 50 µM
[2]
  TGI: 4.51 µM
[3]
  TGI: 2.34 µM
[4]
  TGI: 0.823 µM
[6]
  TGI: 0.206 µM
[7]
  TGI: > 18 µM
[9]
  TGI: 0.0279 µM

## COC(=O)[C@@H]1[C@H](O)CCC2=C(CC(=O)c3ccoc3)[C@H](C)CC[C@]21C
[1]
  TGI: > 50 µM
[8]
  TGI: > 50 µM
[3]
  TGI: > 50 µM
[4]
  TGI: > 50 µM
[5]
  TGI: > 50 µM
[6]
  TGI: > 50 µM
[7]
  TGI: > 50 µM
[9]
  TGI: > 50 µM

## CSc1c2c(C)n[nH]c2nn1-c1ccccc1
[1]
  TGI: > 100 µM
[8]
  TGI: > 100 µM
[2]
  TGI: > 100 µM
[3]
  TGI: > 100 µM
[4]
  TGI: > 100 µM
[5]
  TGI: > 100 µM
[6]
  TGI: > 100 µM
[7]
  TGI: > 100 µM
[9]
  TGI: > 100 µM

## COc1ccc(OC)c(NC2=NCCO2)c1
[1]
  TGI: > 100 µM
[2]
  TGI: > 100 µM
[3]
  TGI: > 100 µM
[4]
  TGI: > 100 µM
[5]
  TGI: > 100 µM
[6]
  TGI: > 100 µM
[7]
  TGI: > 100 µM
[9]
  TGI: > 100 µM

## CCOC(=O)C1(C#N)C2(C#N)C(N)=NC(ON=C(C)C)(ON=C(C)C)C12C#N (stereo unspecified)
[1]
  TGI: > 100 µM
[8]
  TGI: > 100 µM
[2]
  TGI: > 100 µM
[3]
  TGI: > 100 µM
[4]
  TGI: > 100 µM
[5]
  TGI: > 100 µM
[6]
  TGI: > 100 µM
[7]
  TGI: > 100 µM

## CCCc1n[nH]c(=O)n1N1C(=O)C=CC1=O
[1]
  TGI: > 100 µM
[8]
  TGI: > 100 µM
[2]
  TGI: > 100 µM
[3]
  TGI: > 100 µM
[4]
  TGI: > 100 µM
[5]
  TGI: > 100 µM
[6]
  TGI: > 100 µM
[7]
  TGI: > 100 µM
[9]
  TGI: > 100 µM

## COc1cc(OCc2nc3cc(C(F)(F)F)ccc3nc2-c2ccccc2)cc(OC)c1OC
[1]
  TGI: > 100 µM
[8]
  TGI: > 100 µM
[2]
  TGI: > 100 µM
[4]
  TGI: > 100 µM
[5]
  TGI: > 100 µM
[6]
  TGI: > 100 µM
[7]
  TGI: > 100 µM
[9]
  TGI: > 100 µM

## CCn1c(-c2ccc(OC)cc2)nc2c1C(=O)c1ccccc1C2=O
[8]
  TGI: > 100 µM
[2]
  TGI: > 100 µM
[3]
  TGI: > 100 µM
[4]
  TGI: > 100 µM
[5]
  TGI: > 100 µM
[6]
  TGI: > 100 µM
[7]
  TGI: > 100 µM
[9]
  TGI: > 100 µM

## CCNC(=O)NNc1ncnc2c1c(-c1ccc(Cl)cc1)cn2-c1ccc(C)cc1
[1]
  TGI: 30.6 µM
[2]
  TGI: 44.9 µM
[3]
  TGI: 36.8 µM
[4]
  TGI: 44.8 µM
[5]
  TGI: 48.5 µM
[6]
  TGI: 33.5 µM
[7]
  TGI: 38.6 µM
[9]
  TGI: 33.2 µM

## Fc1ccc2[nH]cc(-c3nc(-c4c[nH]c5ccncc45)cs3)c2c1
[1]
  GI50: 1.98 µM
  TGI: 3.43 µM
[8]
  GI50: 1.65 µM
  TGI: 3.07 µM
[2]
  GI50: 1.69 µM
  TGI: 3.1 µM
[6]
  GI50: 1.93 µM
  TGI: 3.38 µM
[7]
  GI50: 1.47 µM
  TGI: 2.99 µM
[9]
  GI50: 1.52 µM
  TGI: 2.88 µM

## C=CCNc1nc(O)c(/C=C2\C=Nc3ncccc32)s1
[1]
  GI50: 1.5 µM
  TGI: 3.7 µM
[2]
  GI50: 2.21 µM
  TGI: 21.6 µM
[4]
  GI50: 1.93 µM
  TGI: 6.28 µM
[5]
  GI50: 2.74 µM
  TGI: 9.96 µM
[6]
  GI50: 2.66 µM
  TGI: > 100 µM
[9]
  GI50: 0.524 µM
  TGI: 2.06 µM

## COc1cc(NS(C)(=O)=O)ccc1NCc1cnc2ccc3[nH]cccc3c12
[1]
  TGI: 59.2 µM
[8]
  TGI: 52.6 µM
[2]
  TGI: > 70.3 µM
[4]
  TGI: 55 µM
[5]
  TGI: 42.1 µM
[6]
  TGI: 50.4 µM
[7]
  TGI: 42.3 µM
[9]
  TGI: 42.2 µM

## CC(C)(C)c1ccc(O)c(C(c2ccc([N+](=O)[O-])cc2)c2cc(C(C)(C)C)ccc2O)c1
[2]
  TGI: 6.14 µM
[4]
  TGI: 4.23 µM
[6]
  TGI: 3.25 µM
[7]
  TGI: 3.33 µM
[9]
  TGI: 3.46 µM

## C[C@@H](NC(=O)[C@@H]1C[C@]1(C)CO)c1cccc2ccccc12
[1]
  TGI: > 100 µM
[8]
  TGI: > 100 µM
[2]
  TGI: > 100 µM
[3]
  TGI: > 100 µM
[4]
  TGI: > 100 µM
[5]
  TGI: > 100 µM
[6]
  TGI: > 100 µM
[7]
  TGI: > 100 µM

## CC(C(=O)NCCNC(=O)CCC(=O)N(C)O)C(=O)NCCNC(=O)CCC(=O)N(C)O
[1]
  TGI: > 100 µM
[2]
  TGI: > 100 µM
[3]
  TGI: > 100 µM
[4]
  TGI: > 100 µM
[5]
  TGI: > 100 µM
[6]
  TGI: > 100 µM
[7]
  TGI: > 100 µM
